In ChEMBL document CHEMBL1201862, “PubChem BioAssay data set” (2004):
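Results reflect a 48-hour exposure of cells in 96-well plates to compound at five concentrations. At the GI50, growth is halved.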 Active and inactive are the calls of the source. Rule as the data show it: active = GI50 up to about 1.1 µM and inactive = higher.

Key:
Assay in all cases: growth of human tumour cells (NCI), 48 h
CCRF-CEM = test system: CCRF-CEM
HOP-62 = test system: HOP-62
ACHN = test system: ACHN
COLO 205 = test system: COLO 205
SNB-75 = test system: SNB-75
UO-31 = test system: UO-31
M14 = test system: M14
IGROV-1 = test system: IGROV-1
HCC 2998 = test system: HCC 2998
SK-MEL-2 = test system: SK-MEL-2
HCT-116 = test system: HCT-116
SF-268 = test system: SF-268
U-251 = test system: U-251
CAKI-1 = test system: CAKI-1
OVCAR-3 = test system: OVCAR-3

| Structure (SMILES) | GI50 (CCRF-CEM) | GI50 (HOP-62) | GI50 (ACHN) | GI50 (COLO 205) | GI50 (SNB-75) | GI50 (UO-31) | GI50 (M14) | GI50 (IGROV-1) | GI50 (HCC 2998) | GI50 (SK-MEL-2) | GI50 (HCT-116) | GI50 (SF-268) | GI50 (U-251) | GI50 (CAKI-1) | GI50 (OVCAR-3) |
| --- | --- | --- | --- | --- | --- | --- | --- | --- | --- | --- | --- | --- | --- | --- | --- |
| COc1ccc2nc(-c3ccccn3)cc(O)c2c1 | 51.2 µM (inactive) | > 100 µM (inactive) | 92.5 µM (inactive) | 28 µM (inactive) | 18.4 µM (inactive) | 18.4 µM (inactive) | 24.2 µM (inactive) | 44.6 µM (inactive) |  |  |  |  |  |  |  |
| N/N=c1\c2ccccc2c2cc3c(cc12)/c(=N/N)c1ccccc13 | > 100 µM (inactive) | > 100 µM (inactive) | > 100 µM (inactive) | > 100 µM (inactive) | 59.4 µM (inactive) | > 100 µM (inactive) | > 100 µM (inactive) | > 100 µM (inactive) | > 100 µM (inactive) | > 100 µM (inactive) | > 100 µM (inactive) | > 100 µM (inactive) | > 100 µM (inactive) |  |  |
| CC(=O)NC1C(OCc2ccccc2)OC(COC(=O)CCCCCCCCCCNC(=O)c2cccc3c(=O)c4ccccc4[nH]c23)C(O)C1OC(C)C(=O)NC(C)C(=O)NC(CCC(N)=O)C(N)=O (configuration not stated) |  | > 100 µM (inactive) | 55.8 µM (inactive) | 85.3 µM (inactive) | 56.9 µM (inactive) | > 100 µM (inactive) | > 100 µM (inactive) | 50.1 µM (inactive) |  | 50.8 µM (inactive) | 79.8 µM (inactive) | > 100 µM (inactive) | 69.5 µM (inactive) | > 100 µM (inactive) | 43.8 µM (inactive) |
| CC(C)C/C(CC(=O)CCC(=O)Nc1ccccc1[N+](=O)[O-])=N\NC(=O)c1cc2ccccc2cc1O | 9.14 µM (inactive) | 57.3 µM (inactive) | 34.1 µM (inactive) | 28.6 µM (inactive) | 37.7 µM (inactive) | 37 µM (inactive) | 26.6 µM (inactive) | 26 µM (inactive) | 36.6 µM (inactive) |  | 49.1 µM (inactive) | 38 µM (inactive) | 39.2 µM (inactive) | 68.2 µM (inactive) | 26.7 µM (inactive) |
| C/C=C(\CCOS(=O)(=O)c1ccc(C)cc1)[Si](C)(C)C | 0.115 µM (active) |  | > 100 µM (inactive) | > 100 µM (inactive) | > 100 µM (inactive) | > 100 µM (inactive) | > 100 µM (inactive) | > 100 µM (inactive) | > 100 µM (inactive) | > 100 µM (inactive) | > 100 µM (inactive) | > 100 µM (inactive) | > 100 µM (inactive) |  | > 100 µM (inactive) |
| O=c1c2ccccc2nc(-c2ccccc2)n1NC(=S)Nc1ccc(Cl)cc1 | 58.3 µM (inactive) | > 100 µM (inactive) | 77.1 µM (inactive) | > 100 µM (inactive) | 59.4 µM (inactive) | 61.5 µM (inactive) | > 100 µM (inactive) | > 100 µM (inactive) |  | > 100 µM (inactive) | 55.1 µM (inactive) | > 100 µM (inactive) | > 100 µM (inactive) | > 100 µM (inactive) |  |
| COc1ccc(C2CC(c3cc(C)ccc3O)=NC(N)=N2)cc1 (configuration not stated) | > 100 µM (inactive) | > 100 µM (inactive) | > 100 µM (inactive) | > 100 µM (inactive) | > 100 µM (inactive) | > 100 µM (inactive) | > 100 µM (inactive) | > 100 µM (inactive) | > 100 µM (inactive) |  | > 100 µM (inactive) | > 100 µM (inactive) | > 100 µM (inactive) | > 100 µM (inactive) | > 100 µM (inactive) |
| O=C(CSc1nnc(-c2ccc(/N=C\c3ccc(Cl)cc3)cc2)o1)Nc1ccc(Cl)cc1 | > 100 µM (inactive) | > 100 µM (inactive) | > 100 µM (inactive) | > 100 µM (inactive) | > 100 µM (inactive) | > 100 µM (inactive) | > 100 µM (inactive) |  |  | > 100 µM (inactive) | > 100 µM (inactive) | > 100 µM (inactive) | > 100 µM (inactive) |  |  |
| COC1OC2COC(C)(C)OC2C(OC(C)=O)C1NC(=O)N(CCCl)N=O (configuration not stated) | 24.3 µM (inactive) | 48.1 µM (inactive) | > 100 µM (inactive) | > 100 µM (inactive) | 29.1 µM (inactive) |  | > 100 µM (inactive) | > 100 µM (inactive) | > 100 µM (inactive) | > 100 µM (inactive) | > 100 µM (inactive) | 8.65 µM (inactive) | 33.7 µM (inactive) | > 100 µM (inactive) | > 100 µM (inactive) |
| N#C/C(=C/c1cccnc1)C(=O)c1ccccc1 | > 100 µM (inactive) | > 100 µM (inactive) | > 100 µM (inactive) | > 100 µM (inactive) | > 100 µM (inactive) | > 100 µM (inactive) | > 100 µM (inactive) |  | > 100 µM (inactive) | > 100 µM (inactive) | > 100 µM (inactive) | > 100 µM (inactive) | > 100 µM (inactive) | > 100 µM (inactive) | > 100 µM (inactive) |
| CCOC12SC(Nc3ccc(C)cc3)=NN1C(=S)N(C)N=C2C (configuration not stated) | > 100 µM (inactive) | > 100 µM (inactive) | > 100 µM (inactive) | > 100 µM (inactive) | > 100 µM (inactive) |  | > 100 µM (inactive) | > 100 µM (inactive) |  |  | > 100 µM (inactive) | > 100 µM (inactive) | > 100 µM (inactive) |  |  |
| Cc1cc2c([nH]c3ccccc32)c2c1OC(C)(C)C1C3CC(C)(C)Oc4c(C)cc5c6ccccc6n(c5c43)C21 (configuration not stated) | > 100 µM (inactive) | > 100 µM (inactive) | > 100 µM (inactive) | > 100 µM (inactive) | > 100 µM (inactive) | > 100 µM (inactive) | > 100 µM (inactive) | > 100 µM (inactive) | > 100 µM (inactive) | > 100 µM (inactive) | > 100 µM (inactive) | > 100 µM (inactive) | > 100 µM (inactive) | > 100 µM (inactive) | > 100 µM (inactive) |
| O=C(COC(=O)c1cccc2c(=O)c3ccccc3[nH]c12)Nc1ccccc1 |  | > 100 µM (inactive) | 41.8 µM (inactive) | 21.7 µM (inactive) | 31.8 µM (inactive) | 22.2 µM (inactive) | 38 µM (inactive) | > 100 µM (inactive) | > 100 µM (inactive) |  | 24.2 µM (inactive) | > 100 µM (inactive) | 71.4 µM (inactive) | 45.8 µM (inactive) | 53.2 µM (inactive) |
| N#Cc1c2ccccc2cn1-c1ccc(F)cc1 | 31 µM (inactive) | 23 µM (inactive) | 27.2 µM (inactive) | 26.2 µM (inactive) | 2.61 µM (inactive) | 8.59 µM (inactive) | 35.2 µM (inactive) | 67.6 µM (inactive) | 43.9 µM (inactive) | > 10 µM (inactive) | 16.8 µM (inactive) | 24.5 µM (inactive) | 39.1 µM (inactive) | 33 µM (inactive) | 19.8 µM (inactive) |
| CSc1nc(SC)c2c(C(N)=S)n[nH]c2n1 | 26.2 µM (inactive) | 23.2 µM (inactive) | 24 µM (inactive) | 18.2 µM (inactive) | 25.9 µM (inactive) | 19 µM (inactive) | 31.9 µM (inactive) | 30.4 µM (inactive) |  | 24 µM (inactive) |  | 31.2 µM (inactive) | 23 µM (inactive) | 21.1 µM (inactive) | 22.1 µM (inactive) |
| N#Cc1c2c(c(N=[N+]=[N-])n3c1nc1ccccc13)CCCC2 |  | 16.2 µM (inactive) | 2.16 µM (inactive) | 3.27 µM (inactive) | 1.97 µM (inactive) | 1.94 µM (inactive) | 1.93 µM (inactive) | 2.72 µM (inactive) | 12.6 µM (inactive) | 1.73 µM (inactive) | 1.43 µM (inactive) | 3.49 µM (inactive) | 3.39 µM (inactive) | 2.72 µM (inactive) | 3.37 µM (inactive) |
| Cc1cc2c(c3nocc13)C(=O)c1ccccc1C2=O | > 100 µM (inactive) | > 100 µM (inactive) | > 100 µM (inactive) | > 100 µM (inactive) | 28.6 µM (inactive) | > 100 µM (inactive) | > 100 µM (inactive) | > 100 µM (inactive) | > 100 µM (inactive) | > 100 µM (inactive) |  | > 100 µM (inactive) | > 100 µM (inactive) | > 100 µM (inactive) | > 100 µM (inactive) |
| COc1cc(/C=C/c2ccc(OC)c(OC)c2OC)cc(OC)c1OC | 22.4 µM (inactive) | 15.6 µM (inactive) | 25.1 µM (inactive) | 17.3 µM (inactive) | 10.8 µM (inactive) | 14.1 µM (inactive) | 25.4 µM (inactive) | 28.2 µM (inactive) | 13.2 µM (inactive) | 16.9 µM (inactive) | 14.6 µM (inactive) | 20.1 µM (inactive) | 16.8 µM (inactive) | 25.1 µM (inactive) | 16 µM (inactive) |
| [N-]=[N+]=NC1C(Br)C(=O)NC(=O)N1[C@H]1C[C@H](O)[C@@H](CO)O1 (some centres not stated) |  | > 100 µM (inactive) | > 100 µM (inactive) | > 100 µM (inactive) | > 100 µM (inactive) | > 100 µM (inactive) | > 100 µM (inactive) | > 100 µM (inactive) | > 100 µM (inactive) | > 100 µM (inactive) |  | > 100 µM (inactive) | > 100 µM (inactive) |  | > 100 µM (inactive) |
| COc1cc2c(c3c1c(=O)c1ccccc1n3C)C=CC(C)(C)O2 [ACRONINE] | 79.1 µM (inactive) | 46.9 µM (inactive) | 45.4 µM (inactive) | > 100 µM (inactive) | 82.6 µM (inactive) | 49.9 µM (inactive) | > 100 µM (inactive) | 58.5 µM (inactive) |  | > 100 µM (inactive) | > 100 µM (inactive) | > 100 µM (inactive) | > 100 µM (inactive) | > 100 µM (inactive) | > 100 µM (inactive) |
